Literature values, collected in patent US20040048261A1, “Invertebrate choline transporter nucleic acids, polypeptides and uses thereof” (priority 2002, published 2004).
pKi: −log10 of the molar value.

Tests used:
[1] = target: low-affinity, sodium-independent system for choline uptake; settings: synaptosome studies, high choline concentrations, read-out: inhibition constant (Ki)
[2] = target: high-affinity, sodium-dependent system for choline uptake; settings: synaptosome studies, low choline concentrations

## C[N+]1(C)CCOC(O)(c2ccc(-c3ccc(C4(O)C[N+](C)(C)CCO4)cc3)cc2)C1 (centres unmarked) [HC-3, hemicholinium-3]
[1]
  pKi: ~4.30
[2]
  pKi: 7.00 to 8.00
